Here are results for 8 compounds from patent US20250057819A1, “DRUG COMBINATIONS FOR INHIBITING CORONAVIRUS REPLICATION” (priority 2021, published 2025).

pEC50, pIC50: −log10 of the molar value. Counter-ions that a name gives are not always drawn. Like-named read-outs stand apart in the source and are kept apart here. Bounds are passed on as bounds.

Data set [1] deals with SARS-CoV-2. The conditions noted are these: reports from in vitro studies (ref. 16); cited from earlier work.
A further data set has as its system Covid-19. The conditions noted are these: adults hospitalized with Covid-19 (ref. 17); cited from earlier work.
Data set [2] concerns SARS-CoV-2. In words: microbe, parasite or virus in culture. The format is cell-based. Particulars: for pEC50: read-out: SARS-CoV-2 EC50.
For another data set, the system named is Huh7.5 cells. Kind of data set: Cell viability assay (MTT) in Huh7.5 cells. The data set is classed as cell-based, human. Particulars: Huh7.5 (B), read-out: SARS-CoV-2 CC50. How it is done:
(§1) Cell viability was monitored by a mitochondrial activity test using methyl-thiazolyl-tetrazolium (MTT, Sigma). After 48 hours of drug treatment, cells were treated with 1 mg/ml of MTT during 3 hours at 37° C. The supernatants were removed and the MTT crystals were dissolved using DMSO and a shaker. The absorbance was read with a Tecan Spark at 570 nm with reference at 650 nm.
(§2) Only the most promising molecules or those studied in synergy were tested in Calu3 cells.

The next data set concerns Calu3 cells. Kind of data set: Cell viability assay (MTT) in Calu3 cells. The data set is classed as cell-based, Human. Particulars: Calu3 (C), read-out: SARS-CoV-2 CC50. How it is done: as §1, §2
Data set [3] deals with SARS-CoV-2. Kind of data set: Drug tests in SARS-CoV-2 model, Calu3 cells, viral titration by plaque assay in Vero E6. Particulars: read-out: SARS-CoV-2 EC50; Calu3 (C), MOI 0.05, 48 h treatment.
The next data set deals with rHCoVs-OC43. Kind of data set: organism not typed. The conditions noted are these: for pIC50: drug 2 alone (fast synergy screening table), read-out: IC50; for pEC50: drug alone, HRT-18 cells, MOI 0.025, 48 h treatment, decrease of Rluc, read-out: EC50. The format is cell-based.
For another data set, the system named is HRT-18 cells. In words: Cell viability assay (MTT) in HRT-18 cells.
The nature of data set [4]: Cell viability assay (MTT) in Huh7.5 cells. The format is cell-based, human. Particulars: human, Huh7.5 cells, Huh7.5 (B), read-out: SARS-CoV-2 CC50. How it is done: as §1, §2
The nature of data set [5]: Cell viability assay (MTT) in Calu3 cells. Particulars: human, Calu3 cells, Calu3 (C), read-out: SARS-CoV-2 CC50. The data set is classed as cell-based, Human. How it is done:
as §1, §2

Data set [6] in a line: Cell viability assay (MTT) in HRT-18 cells. Particulars: human, CC50 (μM).
Setting [7] is: drug 2 alone (fast synergy screening table).
[8] abbreviates: drug alone, HRT-18 cells, 48 h treatment, MTT.
Setting [9] is: Severe acute respiratory syndrome coronavirus 2, Huh7.5, 48 h.

One may read the pEC50 as the EC50 on a negative log10 scale, so that one unit is a factor of ten. For the compound `Cc1cccc(C)c1OCC(=O)N[C@@H](Cc1ccccc1)[C@@H](O)C[C@H](Cc1ccccc1)NC(=O)[C@H](C(C)C)N1CCCNC1=O` [Lopinavir], the negative-log EC50 (pEC50) in the data set with SARS-CoV-2 [1] was 4.59. Moreover, the clinical benefit result in the data set on Covid-19 is “no benefit was observed”.

As a reminder, the CC50 is the concentration giving 50% cytotoxicity. `CC(C)C(=O)OC[C@H]1O[C@@H](n2cc/c(=N\O)[nH]c2=O)[C@H](O)[C@@H]1O` [Molnupinavir]: the pEC50 was 7.08 in the data set on SARS-CoV-2 [2] and 7.46 in the data set on SARS-CoV-2 [3]. The CC50 with Huh7.5 cells and in the data set on Calu3 cells was > 10000 nM each time.

As usually defined, the pIC50 is −log10 of the IC50, conventionally taken in molar units. With `COc1c(C)c2c(c(O)c1C/C=C(\C)CCC(=O)OCCN1CCOCC1)C(=O)OC2` [Mycophenolate mofetil], in the data set on rHCoVs-OC43, the pIC50 was 6.74. Further, the negative logarithm of the EC50 (pEC50) was 6.74 in the data set on rHCoVs-OC43 and 5.93 with SARS-CoV-2 [2]. Further, the 50% cytotoxic concentration (CC50) was 9100 nM in the data set with Huh7.5 cells, > 10000 nM in the data set on HRT-18 cells (setting [7]) and > 10000 nM in the data set with HRT-18 cells (setting [8]).

Consider `Cc1c(O)cccc1C(=O)N[C@@H](CSc1ccccc1)[C@H](O)CN1C[C@H]2CCCC[C@H]2C[C@H]1C(=O)NC(C)(C)C` [Nelfinavir mesylate], for which the negative logarithm of the IC50 (pIC50) with rHCoVs-OC43 (48 h) and in the data set with rHCoVs-OC43 was 5.59 each time. In addition, the negative logarithm of the EC50 (pEC50) in the data set on rHCoVs-OC43 is 5.59; in the data set with SARS-CoV-2 [2] (setting [9]), 5.77; in the data set with SARS-CoV-2 [3], 6.96. Further, the 50% cytotoxic concentration (CC50) at 48 h in data set [4] was > 10000 nM; in [5], > 10000 nM; in [6] (setting [7]), > 10 µM; in data set [6] (setting [8]), > 10 µM.

Take `CC(=O)Oc1ccccc1C(=O)Nc1ncc([N+](=O)[O-])s1` [Nitazoxanide]: the negative-log IC50 (pIC50) with rHCoVs-OC43 (48 h) is 5.88. The pEC50 in the data set with rHCoVs-OC43 is 5.88; with SARS-CoV-2 [2] (setting [9]), 6.27. The CC50 at 48 h in data set [4] is > 10000 nM; in data set [6] (setting [7]) it was > 10 µM; in data set [6] (setting [8]), > 10 µM.

Consider `CCC(CC)COC(=O)[C@H](C)N[P@](=O)(OC[C@H]1O[C@@](C#N)(c2ccc3c(N)ncnn23)[C@H](O)[C@@H]1O)Oc1ccccc1` [Remdesivir], for which the negative-log IC50 (pIC50) with rHCoVs-OC43 (48 h) and in the data set on rHCoVs-OC43 was 7.47 throughout. The pEC50 in the data set with rHCoVs-OC43 is 7.47; with SARS-CoV-2 [2] (setting [9]) it was ≥ 9.00; with SARS-CoV-2 [3] it was 8.40. In addition, the CC50 at 48 h in [4] is > 10000 nM; in [5], > 10000 nM; in data set [6] (setting [7]), 2.5 µM; in [6] (setting [8]), 2.5 µM.

For the compound `CCN(CC)CCOc1ccc2c(c1)C(=O)c1cc(OCCN(CC)CC)ccc1-2` [Tilorone dihydrochloride], the negative-log EC50 (pEC50) is 7.85 in the data set on rHCoVs-OC43, 6.30 in the data set on SARS-CoV-2 [2] (setting [9]) and 7.15 with SARS-CoV-2 [3]. Further, the cytotoxic concentration (CC50) at 48 h is > 10000 nM in data set [4], > 10000 nM in data set [5] and > 10 µM in data set [6] (setting [8]).

Take `CN1CCN(CCCN2c3ccccc3Sc3ccc(C(F)(F)F)cc32)CC1` [Trifluoperazine dihydrochloride]: the pIC50 with rHCoVs-OC43 (48 h) and with rHCoVs-OC43 was 5.54 each time. The pEC50 in the data set on rHCoVs-OC43 was 5.54; with SARS-CoV-2 [2] (setting [9]), < 5.00. Moreover, in the data set with SARS-CoV-2 [2] (drug alone, SARS-CoV-2, words), the “inhibitory effect on viral replication” value is “did not show any significant inhibition of viral replication”. The CC50 at 48 h in data set [4] was > 10000 nM; in data set [6] (setting [7]), > 10 µM; in data set [6] (setting [8]), > 10 µM.
